Earlier results on 1 substance are cited in patent US20050058722A1, “Herbo-mineral formulation for refractory leukemias and lymphomas” (Sahajanand Biotech Private Limited, priority 2003, published 2005).

Data set [1] deals with lymphoid neoplasms. The note with it: pre-clinical studies.
For data set [2], the system named is myeloid leukemia cell lines. The note with it: pre-clinical studies.

In the case of Arsenic trioxide, the “Apoptosis and cell cycle” value in data set [1] is “induction of apoptosis and cell cycle arrest”. The Apoptosis and differentiation result in data set [2] is “dose-dependent induction of apoptosis and partial differentiation”.
